According to US20100324284A1, “PYRROLOPYRIMIDINE DERIVATIVE AS P13K INHIBITOR AND USE THEREOF” (CHUGAI SEIYAKU KABUSHIKI KAISHA, priority 2008, published 2010):

Columns and labels:
human PI3K (p110α/p85α) = human PI3K (p110α/p85α) (Homo sapiens, UniProt P42336); assay: Measurement of PI3K inhibitory activity (AlphaScreen GST Detection Kit); format: biochemical; settings: 10 μM ATP, 4 μM PI(4,5)P2, read-out: Enzyme inhibitory activity (IC50, μM) PI3K α
Protocol: The inhibitory activity of compounds of the present invention represented by formula (I) was measured with human PI3K (p110α/p85α) prepared in a baculovirus expression system using the AlphaScreen GST Detection Kit (Perkin Elmer, Inc.). A predetermined concentration of the compound of the present invention dissolved in dimethylsulfoxide (DMSO) and PI3K were mixed in a 384-well assay plate and after allowing to stand for 20 minutes at room temperature, 4 μM PI(4,5)P2 (Echelon Corporation) and 10 μM ATP (5 mM Hepes, pH 7.5, 2.5 mM MgCl2) were added to initiate the reaction. After reacting at 37° C. for 15 minutes, GST-GRP1 expressed and purified from Escherichia coli, Anti-GST Acceptor Beads (Perkin Elmer, Inc.), Streptavidin Donor Beads (Perkin Elmer, Inc.) and biotin-PI (3,4,5)P3 (Echelon Corporation) (10 mM Tris-HCl pH 7.4, 150 mM NaCl, 7.5 mM EDTA, 1 mM DTT, 0.1% Tween 20) were added, and after allowing to stand for 1 hour at room temperature, light at 520 to 620 nm emitted as a result of exciting with light at 680 nm was measured with the EnVision measuring instrument (Perkin Elmer, Inc.).
Test Example 1 described above can be performed according to “Analytical Biochemistry, 2003, 313, 234-245; Alexander Gray et al”.

[1] = system: human colon cancer cell line HCT116; assay: Cell proliferation inhibitory activity, HCT116 (Cell Counting Kit-8); format: cell-based; settings: HCT-116, 96 h, HCT116, 4 days
Protocol: (§1) The cell proliferation inhibitory activity was measured for compounds of the present invention represented by formula (I). Cancer cell proliferation inhibitory activity was measured using the Cell Counting Kit-8 (Dojindo). 2000 cells each of human colon cancer cell line HCT116 purchased from the American Type Culture Collection (Virginia, USA) were seeded into each well of a 96-well culture plate followed by the addition of a predetermined concentration of the compounds and cultivating in a 5% CO2 environment at 37° C. for 4 days. On the fourth day of cultivating, the Cell Counting Kit-8 solution was added and absorbance (measuring wavelength: 450 nm, reference wavelength: 615 nm) was measured in accordance with the protocol provided with the kit.

[2] = system: human lung cancer cell line NCI-H460; assay: Cell proliferation inhibitory activity, NCI-H460 (Cell Counting Kit-8); format: cell-based; settings: 96 h, NCI-H460, 4 days, read-out: Cell proliferation inhibitory activity (IC50, μM) Non-small cell cancer (NCIH460)
Protocol: as §1
(§2) Cancer cell proliferation inhibitory activity was also measured for human lung cancer cell line NCI-H460 and human prostate cancer cell line PC3 purchased from the American Type Culture Collection.

[3] = system: human prostate cancer cell line PC3; assay: Cell proliferation inhibitory activity, PC3 (Cell Counting Kit-8); format: cell-based; settings: PC-3, 96 h, PC3, 4 days
Protocol: as §1, §2

Chain of human PI3K (p110α/p85α) (P42336 whole entry): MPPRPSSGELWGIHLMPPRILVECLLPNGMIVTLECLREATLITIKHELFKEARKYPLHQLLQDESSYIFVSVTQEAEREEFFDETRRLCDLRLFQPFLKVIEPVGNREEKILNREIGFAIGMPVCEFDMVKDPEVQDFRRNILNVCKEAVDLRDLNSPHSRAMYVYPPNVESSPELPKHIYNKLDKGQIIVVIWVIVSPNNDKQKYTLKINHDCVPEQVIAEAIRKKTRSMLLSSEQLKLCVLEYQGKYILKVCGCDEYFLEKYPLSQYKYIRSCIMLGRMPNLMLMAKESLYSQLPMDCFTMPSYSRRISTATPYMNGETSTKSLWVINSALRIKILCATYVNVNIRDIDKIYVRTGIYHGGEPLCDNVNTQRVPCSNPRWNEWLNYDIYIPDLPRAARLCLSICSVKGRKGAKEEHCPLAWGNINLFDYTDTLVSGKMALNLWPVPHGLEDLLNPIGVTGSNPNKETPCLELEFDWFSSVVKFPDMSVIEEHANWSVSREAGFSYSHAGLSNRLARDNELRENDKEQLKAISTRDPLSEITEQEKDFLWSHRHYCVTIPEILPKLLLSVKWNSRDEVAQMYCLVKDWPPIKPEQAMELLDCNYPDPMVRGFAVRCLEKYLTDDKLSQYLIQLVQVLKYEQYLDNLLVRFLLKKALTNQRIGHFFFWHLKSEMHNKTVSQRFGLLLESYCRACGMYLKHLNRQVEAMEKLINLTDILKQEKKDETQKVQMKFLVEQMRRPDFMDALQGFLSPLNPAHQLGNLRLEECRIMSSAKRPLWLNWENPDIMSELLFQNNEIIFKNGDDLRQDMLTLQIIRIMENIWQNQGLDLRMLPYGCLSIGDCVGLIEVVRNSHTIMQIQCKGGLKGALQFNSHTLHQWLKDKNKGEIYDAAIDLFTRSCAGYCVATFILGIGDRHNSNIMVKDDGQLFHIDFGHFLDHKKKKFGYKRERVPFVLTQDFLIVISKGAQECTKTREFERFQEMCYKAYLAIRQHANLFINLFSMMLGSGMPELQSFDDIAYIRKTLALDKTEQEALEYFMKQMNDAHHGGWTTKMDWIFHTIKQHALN
Chain of human PI3K (p110α/p85α) (P27986 whole entry partner): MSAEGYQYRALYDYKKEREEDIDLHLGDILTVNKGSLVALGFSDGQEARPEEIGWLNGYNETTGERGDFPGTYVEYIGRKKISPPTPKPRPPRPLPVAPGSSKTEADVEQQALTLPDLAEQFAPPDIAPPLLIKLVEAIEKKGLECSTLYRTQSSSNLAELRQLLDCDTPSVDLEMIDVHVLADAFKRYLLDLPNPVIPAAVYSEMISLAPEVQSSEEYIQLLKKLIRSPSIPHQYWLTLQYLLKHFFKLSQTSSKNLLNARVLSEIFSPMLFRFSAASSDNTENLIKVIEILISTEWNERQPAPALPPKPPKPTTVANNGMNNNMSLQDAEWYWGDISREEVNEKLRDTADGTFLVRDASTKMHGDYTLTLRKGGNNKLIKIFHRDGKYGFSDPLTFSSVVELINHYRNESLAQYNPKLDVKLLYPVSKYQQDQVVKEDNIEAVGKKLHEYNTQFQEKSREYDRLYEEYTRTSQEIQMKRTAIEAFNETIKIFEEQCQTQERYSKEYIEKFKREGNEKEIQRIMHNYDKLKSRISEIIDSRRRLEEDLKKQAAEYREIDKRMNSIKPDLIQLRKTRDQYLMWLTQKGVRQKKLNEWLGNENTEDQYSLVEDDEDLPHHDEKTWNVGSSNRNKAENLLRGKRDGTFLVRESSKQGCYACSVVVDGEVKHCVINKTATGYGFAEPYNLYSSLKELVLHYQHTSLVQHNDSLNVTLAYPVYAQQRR

IC50 (human PI3K (p110α/p85α)) | IC50 [1] | IC50 [2] | IC50 [3] | SMILES
0.007 µM | 0.12 µM | 0.071 µM | 0.18 µM | CCN1CCN(c2cc(-n3ccc4c(-c5cnc(N)nc5)nc(N5CCOCC5)nc43)ccn2)CC1 [Compound 1-1, 5-{7-[2-(4-Ethyl-piperazin-1-yl)-pyridin-4-yl]-2-morpholin-4-yl-7H-pyrrolo[2,3-d]pyrimidin-4-yl}-pyrimidin-2-ylamine]
0.093 µM | 1.45 µM | 1.25 µM | 3.18 µM | Cc1ccc(C(=O)N2CCOCC2)cc1-n1ccc2c(-c3cnc(N)nc3)nc(N3CCOCC3)nc21 [Compound 2-1, {3-[4-(2-amino-pyrimidin-5-yl)-2-morpholin-4-yl-pyrrolo[2,3-d]pyrimidin-7-yl]-4-methyl-phenyl}-morpholin-4-yl-methanone]
0.093 µM | 0.57 µM | 0.17 µM | 0.43 µM | Nc1ncc(-c2nc(N3CCOCC3)nc3c2ccn3-c2ccc(CN3CCS(=O)(=O)CC3)cc2)cn1 [Compound 3-1, 5-{7-[4-(1,1-dioxo-1λ^6-thiomorpholin-4-ylmethyl)-phenyl]-2-morpholin-4-yl-7H-pyrrolo[2,3-d]pyrimidin-4-yl}-pyrimidin-2-ylamine]
0.016 µM | 0.41 µM | 0.29 µM | 1.14 µM | CS(=O)(=O)n1ccc2c(-c3cnc(N)nc3)nc(N3CCOCC3)nc21 [Compound 4-1, 5-(7-methanesulfonyl-2-morpholin-4-yl-7H-pyrrolo[2,3-d]pyrimidin-4-yl)-pyrimidin-2-ylamine]
